# Source: patent US20250034168A1, “NITROGEN-CONTAINING HETEROCYCLIC DERIVATIVE PARP INHIBITOR AND USE THEREOF” (XIZANG HAISCO PHARMACEUTICAL CO., LTD., priority 2021, published 2025)
# Key:
# MDA-MB-436 cells = test: MDA-MB-436 cell activity test; assay type: cell-based; conditions: Homo sapiens
# Method: Breast tumor cells MDA-MB-436 were purchased from ATCC, the culture medium was Leibovitz's L-15+10% FBS, and the cells were cultured in a CO2-free incubator at 37° C. On day 1, the cells in the exponential growth phase were collected, and the cell suspension was adjusted to 4000 cells/135 μL with the culture medium. 135 μL of the cell suspension was added to each well of a 96-well cell culture plate and incubated overnight. On day 2, compounds at different concentrations were added, and the plate was placed in the incubator and incubated for 7 days. After the incubation was completed, according to operation instructions for a CellTiter-Glo kit (Promega, G7573), 75 μL of CTG solution, which was already pre-melted and equilibrated to room temperature, was added to each well, and the mixture was uniformly mixed for 2 min using a microplate shaker. The plate was placed at room temperature for 10 min, and then […] were measured using an Envision2104 plate reader (PerkinElmer). The inhibition rate was calculated using formula (1), where RLUcompound was the readout of the drug treated group, RLUcontrol was the average value of the vehicle control group, and RLUblank was the average value of the cell-free well. The IC50 value was calculated using GraphPad Prism software.
# PARP2 = PARP2 (Homo sapiens (Human), UniProt Q9UGN5); test: PARP2 enzyme activity test; assay type: biochemical
# PARP2, sequence (Q9UGN5 whole entry): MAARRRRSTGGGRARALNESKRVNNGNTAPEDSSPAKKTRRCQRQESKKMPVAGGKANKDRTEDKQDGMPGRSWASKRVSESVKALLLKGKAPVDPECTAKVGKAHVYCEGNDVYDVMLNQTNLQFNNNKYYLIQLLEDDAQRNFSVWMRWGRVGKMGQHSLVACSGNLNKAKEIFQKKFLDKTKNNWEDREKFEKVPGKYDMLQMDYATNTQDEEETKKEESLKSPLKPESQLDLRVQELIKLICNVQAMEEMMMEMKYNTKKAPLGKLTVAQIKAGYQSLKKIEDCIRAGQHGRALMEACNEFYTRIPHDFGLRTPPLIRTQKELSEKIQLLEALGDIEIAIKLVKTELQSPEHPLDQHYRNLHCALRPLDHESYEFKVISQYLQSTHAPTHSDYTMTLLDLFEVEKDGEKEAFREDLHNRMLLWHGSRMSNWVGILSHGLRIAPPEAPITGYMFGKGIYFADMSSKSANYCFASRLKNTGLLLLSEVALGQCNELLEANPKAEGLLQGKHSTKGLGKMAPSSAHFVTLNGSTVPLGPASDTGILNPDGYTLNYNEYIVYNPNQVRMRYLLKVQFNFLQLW
# Method: PARP2 and PARP7 chemical […] detection kits were both purchased from BPS Bioscience. The histone solution in the kit was diluted 5× with 1×PBS, and 25 μL of the diluted histone solution was added to a microwell plate and incubated overnight at 4° C. After the incubation, the plate was washed three times with PBST (0.05% Tween-20). 100 μL of the blocking solution was added to the microwell plate and incubated at 25° C. for 90 minutes. After the incubation, the plate was washed three times with PBST. 2.5 μL of compound 4 diluted in test buffer and 5 μL of substrate mixed solution were added to the microwell plate. 5 μL of the diluted PARP enzyme was added to the microwell plate, and the reaction system was incubated at 25° C. for 60 minutes.
# After the incubation, the plate was washed three times with PBST. Streptavidin-HRP was diluted 50× with a blocking solution, and 25 μL of the diluent was added to the microwell plate and incubated at 25° C. for 30 minutes. After the incubation, the plate was washed three times with PBST. ELISA ECL substrate A and substrate B were mixed at a ratio of 1:1 (v/v), 25 μL of the mixture was added to the microwell plate, and the chemiluminescence value was read. […]
# MDA-MB-231 cells = test: MDA-MB-231 cell proliferation inhibition test; assay type: cell-based; conditions: Homo sapiens
# Method: Human breast cancer MDA-MB-231 cells purchased from ATCC were placed in complete DMEM medium (supplemented with 10% fetal bovine serum and 1% double antibody) and cultured at 37° C. and 5% CO2. The cells in the exponential growth phase were collected, and the cell suspension was adjusted to 1500 cells/135 μL with the culture medium. 135 μL of the cell suspension was added to each well of a 96-well cell culture plate and incubated overnight. On day 2, compounds at different concentrations were added, and the plate was placed in the incubator and incubated for 7 days. After the incubation was completed, according to operation instructions for a CellTiter-Glo kit (Promega, Cat #G7573), 75 μL of CTG solution, which was already pre-melted and equilibrated to room temperature, was added to each well, and the mixture was uniformly mixed for 2 min using a microplate shaker. The plate was placed at room temperature for 10 min, and then […] signal values were measured using an Envision 2104 plate reader (PerkinElmer). The cell proliferation inhibition rate was calculated according to the formula [(1−(RLUcompound−RLUblank)/(RLUcontrol−RLUblank))×100%]. The IC50 value was obtained by four-parameter nonlinear fitting using GraphPad Prism software.
# [1] = system: MDA-MB-436 subcutaneous transplanted tumor; test: Mouse MDA-MB-436 subcutaneous in vivo transplanted tumor model; set-up: species or system BALB/c nude mice
# Method: Human breast cancer MDA-MB-436 cells were placed in Leibovitz's L-15 medium (supplemented with 10 μg/mL insulin, 16 μg/mL glutathione, 10% fetal bovine serum and 1% double antibody) and cultured at 37° C. Conventional digestion treatment with trypsin was carried out twice a week for passage. When the cell saturation was 80%-90%, and the number reached the requirement, the cells were collected, counted, and inoculated. BALB/c nude mice (from Beijing Vital River Laboratory Animal Technology Co., Ltd.) were subcutaneously inoculated with 0.2 mL (10×10^6) of MDA-MB-436 cells (plus matrigel, with the volume ratio of 1:1) on the right back. When the average tumor volume reached about 180 mm^3, grouping and administration were performed (marked as Day 0). The solvent group was given 5% DMSO, 30% PEG400 and 65% of 20% sulfobutyl-β-cyclodextrin solution, and the administration group was given compound 14 (Day 0-Day 10:1 mg/kg; Day 11-Day 28:0.1 mg/kg). The administration frequency was once a day, the administration cycle was 29 days, and the drug withdrawal observation period was set to 14 days. After grouping, the tumor diameter was measured twice a week with a vernier caliper. The formula for calculating the tumor volume was: V=0.5×a×b^2, where a and b represented the long and short diameters of the tumor, respectively. The tumor inhibitory effect of compound 14 was evaluated by TGI (%)=[(1−(average tumor volume at the end of administration in the treatment group−average tumor volume at the beginning of administration in the treatment group))/(average tumor volume at the end of treatment in the solvent control group−average tumor volume at the beginning of treatment in the solvent control group)]×100%. The tumor growth curve and the animal body weight change curve were as shown in FIG. 1 and FIG. 2, respectively.
compound,measurement,setting,value
"CCc1cc2ncc(CN3CC=C(c4ccc(C(=O)NC)nc4)CC3)cc2[nH]c1=O [Compound 14, 1′-((7-ethyl-6-oxo-5,6-dihydro-1,5-naphthyridin-3-yl)methyl)-N-methyl-1′,2′,3′,6′-tetrahydro-[3,4′-bipyridine]-6-carboxamide]",IC50,"MDA-MB-436 cells; MDA-MB-436, 168 h, 7 days incubation, CellTiter-Glo",3.2 nM
same,inhibition at 10 µM,"MDA-MB-436 cells; MDA-MB-436 cells, 10 μM, read-out: Max inh. % 10 μM",89.1%
same,IC50,PARP2,31 nM
same,IC50,"MDA-MB-231 cells; MDA-MB-231, 168 h, BRCA WT cells, 7 days incubation, CellTiter-Glo, read-out: MDA-MB-231 cell inhibitory activity IC50",21800 nM
same,inhibition at 10 µM,"MDA-MB-231 cells; MDA-MB-231 cells, 10 μM, read-out: Max inh. % 10 μM",59.2%
same,body weight of the animals,"[1]; Day 0-Day 10: 1 mg/kg, Day 11-Day 28: 0.1 mg/kg, once a day",no significant decrease
same,TGI,"[1]; after 28 days of administration, Day 0-Day 10: 1 mg/kg, Day 11-Day 28: 0.1 mg/kg, once a day",121%
same,tumor growth after drug withdrawal,[1]; drug withdrawal observation period 14 days,did not grow again
